Measurements published in US4963589A, “Methods for treating Giardia lamblia” (The University of North Carolina at Chapel Hill, priority 1988, dated 1990).
Where a name gives a salt, the structure may show the parent alone. Read-outs that look alike come from different tables or passages of the source.

What was measured:
[1] = tested on: Giardia lamblia trophozoites, WB strain (ATCC #30957); assay: 3H-thymidine incorporation drug sensitivity assay, Giardia lamblia WB strain (ATCC 30957); type: cell-based; conditions: for IC50: Giardia duodenalis; for efficacy against Giardia lamblia (in words): qualitative statements on the results
Protocol: Giardia lamblia trophozoites were obtained from logarithmically growing stock cultures. Into the wells of a 96 well U-bottom tissue culture plate (Costar) was placed 100 μl of modified TYI-S-33 medium containing 2.5×10^4 trophozoites. The tissue culture plate was maintained in an anerobic environment by placing it inside a plastic box modified to allow nitrogen to be passed through the box via inlet and outlet tubing which could be clamped shut. Nitrogen was passed through the box for 2 minutes and the container was placed in a 37° C. incubator gassed with 5% CO2 in air.
Varying concentrations of ^3 H-thymidine (0.5, 1.0, 1.5 and 2.0 μCi/well) were added to wells containing 2.5×10^4 Giardia lamblia trophozoites at 2 hour intervals so that it might remain in contact with the trophozoites for 2 to 24 hours. After 24 hours of incubation, the cells were harvested with a multimash cell harvester by washing vigorously with ice-cold Hank's Balanced Salt Solution. Samples were collected on Whatman glass microfiber paper. the paper was air dried, samples were placed in 7 ml scintillation vials and the incorporation of ^3 H-thymidine was determined by liquid scintillation counting. Mean values were calculated from 5 replicates for each time point and concentration.
One hundred μl of modified TYI-S-33 medium containing 2.5×10^4trophozoites was placed into each well of a 96-well U-bottom plate. The plates were incubated under anaerobic conditions for 24 hours. After 24 hours, the compounds to be tested were prepared from the 2 mM stock solutions and 100 μl each solution was added to yield concentrations of 1, 10, 100 and 1000 μMin the wells. Ten μl of a 150 μCi/ml solution of ^3 H-thymidine (SA=10 Ci/mmole) in modified TYI-S-33 was added 6 hours after the addition of drug to yield a final concentration of 1.5 μCi/well. After an additional 18 hours of incubation the cells were harvested. Five replicates were run for each drug concentration and the mean values determined. Non-specific binding of the ^3 H-thymidine to the microfiber paper was determined through the use of control wells to which no organisms were added. The activities of compounds tested were determined by comparing the incorporation of ^ 3 H-thymidine in the wells to which the compounds were added to that of wells of drug free controls. The drug concentration required to inhibit 50% incorporation of ^3 H-thymidine (IC50) was determined (Chou, 1974).

[2] = tested on: Giardia lamblia Stock BRIS/82/HEPU/41; conditions: Table IV; Stock BRIS/82/HEPU/41 (Boreham et al., 1984); read-out: IC50 determined by 3H-thymidine incorporation; cited from earlier work
[3] = tested on: Giardia lamblia Stock BRIS/83/HEPU/106; conditions: Table IV; Stock BRIS/83/HEPU/106 (Boreham et al., 1984); read-out: IC50 determined by 3H-thymidine incorporation; cited from earlier work
[4] = tested on: Giardia lamblia Stock BRIS/83/HEPU/120; conditions: Table IV; Stock BRIS/83/HEPU/120 (Boreham et al., 1984); read-out: IC50 determined by 3H-thymidine incorporation; cited from earlier work
[5] = tested on: Giardia lamblia Stock BRI/83/HEPU/136; conditions: Table IV; Stock BRI/83/HEPU/136 (Boreham et al., 1984); read-out: IC50 determined by 3H-thymidine incorporation; cited from earlier work
[6] = ATCC30957, Table I, 50% inhibition of 3H-thymidine incorporation, WB strain, 24 h with drug, read-out: IC50, Giardia lamblia vs. para-amidines
[7] = ATCC30957, read-out: IC50, Giardia lamblia vs. para-amidines
[8] = ATCC30957, Table II, 50% inhibition of 3H-thymidine incorporation, WB strain, 24 h with drug, read-out: IC50, Giardia lamblia vs. meta-amidines
[9] = ATCC30957, Table III, 50% inhibition of 3H-thymidine incorporation, WB strain, 24 h with drug, read-out: IC50, Giardia lamblia vs. para-imidazolines
[10] = ATCC30957, Table IV, Stock WB (ATCC 30957), read-out: IC50 determined by 3H-thymidine incorporation

## N=C(N)c1ccc(OCCOc2ccc(C(=N)N)cc2N)c(N)c1 [Example 1]
[1]; [6]
  IC50: 1180 µM

## N=C(N)c1ccc(NCCNc2ccc(C(=N)N)cc2N)c(N)c1 [Example 2]
[1]; [6]
  IC50: 744 µM

## N=C(N)c1ccc(OCCCOc2ccc(C(=N)N)cc2)cc1 [Example 3]
[1]; [6]
  IC50: 12.3 µM

## N=C(N)c1ccc(OCCCOc2ccc(C(=N)N)cc2N)c(N)c1 [Example 4]
[1]; [6]
  IC50: 15.4 µM

## COc1cc(C(=N)N)ccc1OCCCOc1ccc(C(=N)N)cc1OC [Example 5]
[1]; [6]
  IC50: 3.2 µM

## N=C(N)c1ccc(NCCCNc2ccc(C(=N)N)cc2)cc1 [Example 6]
[1]; [6]
  IC50: 68.2 µM

## N=C(N)c1ccc(NCCCNc2ccc(C(=N)N)cc2[N+](=O)[O-])c([N+](=O)[O-])c1 [Example 7]
[1]; [7]
  IC50: 84.2 µM

## N=C(N)c1ccc(OCCCCOc2ccc(C(=N)N)cc2)cc1 [Example 8]
[1]; [6]
  IC50: 61.6 µM

## N=C(N)c1ccc(OCCCCOc2ccc(C(=N)N)cc2N)c(N)c1 [Example 9]
[1]; [6]
  IC50: 96.8 µM

## N=C(N)c1ccc(OCCCCOc2ccc(C(=N)N)cc2[N+](=O)[O-])c([N+](=O)[O-])c1 [Example 10]
[1]; [7]
  IC50: 53.2 µM

## COc1cc(C(=N)N)ccc1OCCCCOc1ccc(C(=N)N)cc1OC [Example 11]
[1]; [6]
  IC50: 68.8 µM

## N=C(N)c1ccc(OCCCCOc2ccc(C(=N)N)cc2Cl)c(Cl)c1 [Example 12]
[1]; [6]
  IC50: 27.7 µM

## N=C(N)c1ccc(NCCCCNc2ccc(C(=N)N)cc2)cc1 [Example 13]
[1]; [6]
  IC50: 50.7 µM

## N=C(N)c1ccc(NCCCCNc2ccc(C(=N)N)cc2N)c(N)c1 [Example 14]
[1]; [6]
  IC50: 108 µM

## N=C(N)c1ccc(OCCCCCOc2ccc(C(=N)N)cc2)cc1 [Example 15, reference compound]
[1]; [7]
  IC50: 76.5 µM
[1]
  efficacy against Giardia lamblia (in words): moderately effective

## N=C(N)c1ccc(OCCCCCOc2ccc(C(=N)N)cc2N)c(N)c1 [Example 16]
[1]; [6]
  IC50: 66.3 µM

## N=C(N)c1ccc(OCCCCCOc2ccc(C(=N)N)cc2[N+](=O)[O-])c([N+](=O)[O-])c1 [Example 17]
[1]; [7]
  IC50: 26.1 µM

## COc1cc(C(=N)N)ccc1OCCCCCOc1ccc(C(=N)N)cc1OC [Example 18]
[1]; [6]
  IC50: 24 µM

## N=C(N)c1ccc(OCCCCCOc2ccc(C(=N)N)cc2Cl)c(Cl)c1 [Example 19]
[1]; [6]
  IC50: 16.3 µM

## N=C(N)c1ccc(NCCCCCNc2ccc(C(=N)N)cc2)cc1 [Example 20]
[1]; [6]
  IC50: 40.6 µM

## N=C(N)c1ccc(NCCCCCNc2ccc(C(=N)N)cc2N)c(N)c1 [Example 21]
[1]; [6]
  IC50: 48.6 µM

## N=C(N)c1ccc(NCCCCCNc2ccc(C(=N)N)cc2[N+](=O)[O-])c([N+](=O)[O-])c1 [Example 22]
[1]; [7]
  IC50: 29.9 µM

## N=C(N)c1ccc(OCCCCCCOc2ccc(C(=N)N)cc2)cc1 [Example 23]
[1]; [6]
  IC50: 34.3 µM

## N=C(N)c1ccc(OCCCCCCOc2ccc(C(=N)N)cc2N)c(N)c1 [Example 24]
[1]; [6]
  IC50: 38.7 µM

## N=C(N)c1ccc(NCCCCCCNc2ccc(C(=N)N)cc2)cc1 [Example 25]
[1]; [6]
  IC50: 4.2 µM

## N=C(N)c1ccc(NCCCCCCNc2ccc(C(=N)N)cc2N)c(N)c1 [Example 26]
[1]; [6]
  IC50: 21.9 µM

## N=C(N)c1cccc(OCCCOc2cccc(C(=N)N)c2)c1 [Example 27]
[1]; [8]
  IC50: 560 µM

## N=C(N)c1cccc(OCCCCOc2cccc(C(=N)N)c2)c1 [Example 28]
[1]; [8]
  IC50: 106 µM

## N=C(N)c1cccc(OCCCCCOc2cccc(C(=N)N)c2)c1 [Example 29]
[1]; [8]
  IC50: 55.8 µM

## N=C(N)c1cccc(OCCCCCCOc2cccc(C(=N)N)c2)c1 [Example 30]
[1]; [8]
  IC50: 84.2 µM

## COc1cc(C2=NCCN2)ccc1OCCCOc1ccc(C2=NCCN2)cc1OC [Example 31]
[1]; [9]
  IC50: 25.4 µM
[1]
  efficacy against Giardia lamblia (in words): slightly less efficacious than the amidine counterpart of Example 5

## c1cc(C2=NCCN2)ccc1OCCCCOc1ccc(C2=NCCN2)cc1 [Example 32]
[1]; [9]
  IC50: 26 µM

## CN1CCN=C1c1ccc(OCCCCOc2ccc(C3=NCCN3C)cc2)cc1 [Example 33]
[1]; [9]
  IC50: 346 µM

## c1cc(C2=NCCN2)ccc1OCCCCCOc1ccc(C2=NCCN2)cc1 [Example 34]
[1]; [9]
  IC50: 39.2 µM

## CN1CCN=C1c1ccc(OCCCCCOc2ccc(C3=NCCN3C)cc2)cc1 [Example 35]
[1]; [9]
  IC50: 373 µM

## COc1cc(C2=NCCN2)ccc1OCCCCCOc1ccc(C2=NCCN2)cc1OC [Example 36]
[1]; [9]
  IC50: 47.1 µM

## O=C1OCCN1N=Cc1ccc([N+](=O)[O-])o1 [Furazolidone]
[2]
  IC50: 0.6 µM
[3]
  IC50: 0.74 µM
[4]
  IC50: 2.5 µM
[5]
  IC50: 0.43 µM
[1]; [10]
  IC50: 1.9 µM

## Cc1ncc([N+](=O)[O-])n1CCO [Metronidazole]
[2]
  IC50: 2.14 µM
[3]
  IC50: 0.91 µM
[4]
  IC50: 1.08 µM
[5]
  IC50: 2.21 µM
[1]; [10]
  IC50: 3.65 µM

## CCN(CC)CCCC(C)Nc1c2ccc(Cl)cc2nc2ccc(OC)cc12 (centres unmarked) [Quinacrine . HCl]
[2]
  IC50: 1.09 µM
[3]
  IC50: 1.18 µM
[4]
  IC50: 1.59 µM
[5]
  IC50: 4.02 µM
[1]; [10]
  IC50: 1.41 µM
